According to patent US5385918A, “Aminomethylene-peptides as immunosuppressants” (Miles Inc., priority 1993, dated 1995):

Columns and labels:
[1] = target: FKBP (Homo sapiens, UniProt P62942); assay: PPIase Inhibition Assay; type: biochemical; conditions: inhibition of PPIase activity of FKBP, substrate Succinyl-Ala-Phe-Pro-Phe-para-nitroanilide
Experimental: This assay follows in principle the procedure described in Kofron et al., 1991, Biochemistry 30:6127. The three main reagents used are PPIase, a substrate for PPIase, and a selected inhibitor compound of the present invention. The basic principle behind this assay is the conversion of the cis isomer of the substrate to the trans form, which conversion is catalyzed by PPIase. Essentially, inhibition of this PPIase activity is measured for the selected compounds. A peptide chymotrypsin substrate containing a proline in the P2 position is only cleaved by chymotrypsin when the Phe-Pro bond is in the trans isomeric configuration. In the presence of excess chymotrypsin, all of the trans peptide isomers are cleaved within approximately five seconds, leaving only cis forms.
The cis peptide will spontaneously convert to the trans isomer at a slow rate. The cis to trans conversion is catalyzed by isomerases at a much faster rate than this spontaneous conversion. Proteins with PPIase activity are examples of such isomerases. After isomerization, the peptide is cleaved by chymotrypsin releasing p-nitroaniline which can be monitored at 390 nm. The rate of release is then calculated using a first order rate plus offset equation utilizing the ENZFITTER program (Leatherbarrow, BIOSOFT, Cambridge, United Kingdom).
In a plastic cuvette are added 950 ul of ice cold assay buffer (25 mM HEPES, pH 7.8, 100 mM NaCl), 10 uL of FKBP (2.5 uM in 10 mM Tris-Cl pH 7.5, 100 mM NaCl, 1 mM dithiothreitol), 25 ul of chymotrypsin (50 mg/ml in 1 mM HCl) and 10 ul of the test compound at various concentrations in dimethyl sulphoxide. The reaction is initiated by addition of 5 ul of substrate (Succinyl-Ala-Phe-Pro-Phe-para-nitroanilide, 5 mg/ml in 235 mM LiCl in trifluoroethanol).
The absorbance at 390 nm versus time is monitored for 90 sec using a Beckman DU70 spectrophotometer. The absorbance versus time data files are transferred to an IBM XT computer and the rate constants determined using the commercial Enzfitter program. For each set of data, the uncatalyzed rate of conversion is measured and the uninhibited enzymatic rate determined. The data are expressed as % Inhibition and are calculated as follows: [formula] where kobs is the rate in the presence of a selected test compound, kuncat is the rate in the absence of enzyme, and kuninh is the rate in the presence of enzyme and absence of inhibitor. Data are plotted as percent inhibition versus concentration of inhibitor. The values of the concentration of inhibitor required for 50% inhibition of enzyme activity (IC50) were determined by nonlinear least squares regression analysis.

[2] = test system: Lewis rats; assay: Adjuvant Arthritis Model in the Rat; type: in vivo; conditions: for % Inhibition: inhibition of swelling in uninjected limb vs vehicle control, 10 mg/kg/dose i.p.; for ΔAnkle Diameter: uninjected hind paw, day 0 to day 16, 10 mg/kg/dose i.p. on days -1, 0, 2, 5, 7, 9, 12 and 14
Experimental: Complete Freund's adjuvant is made by supplementing extra heavy mineral oil with 10 mg/ml heat killed Mycobacterium butyricum (Difco Laboratories, Detroit, Mich.). Lewis rats (Charles Rivers, Willmington, Mass.) are given a 0.1 ml injection of adjuvant (1 mg/animal mycobacterium) subcutaneously into the right hind footpad. In the injected foot, an acute inflammatory reaction occurs which is characterized by erythema, edema and a predominantly neutrophilic cell infiltrate. This is followed by edema in the uninjected contralateral foot by days 10-12. This secondary response is accompanied by a predominantly mononuclear cell infiltrate, indicating the presence of cell-mediated immunity.
The immune response is quantitated by measuring the change in ankle diameter of the uninjected hind paw from day 0 to day 16 post sensitization. This is accomplished using a hand-held dial micrometer. Animals are administered test drugs, suspended in a vehicle consisting of 5% polyethylene glycol and 0.5% Tween-80 (Sigma Chemical Co., St. Louis, Mo.) in phosphate buffered saline (GIBCO, Grand Island, N.Y.), i.p. on days -1, 0, 2, 5, 7, 9, 12 and 14. Several compounds when administered at 10 mg/kg/dose inhibited the swelling in the uninjected limb compared with the control groups that were sensitized with Complete Freund's Adjuvant but received only the vehicle i.p. (Table 4).

Chain of FKBP (P62942 whole entry): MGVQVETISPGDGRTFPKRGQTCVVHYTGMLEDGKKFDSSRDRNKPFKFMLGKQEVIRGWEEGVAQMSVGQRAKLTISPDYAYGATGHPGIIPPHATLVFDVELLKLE

Row | Structure (SMILES) | IC50 [1] [nM] | % Inhibition [2] [%] | ΔAnkle Diameter [2] [mm]
1 | CC[C@H](C)[C@H](NC(=O)[C@@H]1CCCN1C[C@H](CC(C)C)NC(=O)OC(C)(C)C)C(=O)NCc1ccccc1 [Example 2, 1-[1-[2-(S)-[[(1,1-Dimethylethoxy)carbonyl]amino]-4-methylpentyl]-L-proline]-L-isoleucine Benzylamide] | 570 | – | –
2 | CC[C@H](C)[C@H](NC(=O)[C@@H]1CCCCN1C[C@@H](NC(=O)OC(C)(C)C)[C@@H](C)CC)C(=O)NCc1ccccc1 [Example 3, 1-[1-[2-(S)-[[(1,1-Dimethylethoxy)carbonyl]amino]-3-(S)-methylpentyl]-L-homoproline]-L-isoleucine Benzylamide] | 5000 | 30 | 2.6 ± 0.4
3 | CC[C@H](C)[C@H](NC(=O)[C@@H]1CCCN1C[C@@H](NC(=O)OC(C)(C)C)[C@@H](C)CC)C(=O)NCc1ccccc1 [Example 6] | 390 | 4 | 3.2 ± 0.3
4 | CCC(C)[C@@H](CN1CCC[C@H]1C(=O)N[C@H](C(=O)NCc1ccccc1)[C@@H](C)CC)NC(=O)[C@H](CC1CCCCC1)NC(=O)OC(C)(C)C (stereo partly drawn) [Example 7, 1-[1-[2-(S)-[[2-(S)-[[(1,1-Dimethylethoxy)carbonyl]amino]-1-oxo-3-cyclohexylpropyl]amino]-3-methylpentyl]-L-proline]-L-isoleucine Benzylamide] | 130 | – | –
5 | CCC(C)[C@@H](CN1CCC[C@H]1C(=O)N[C@H](C(=O)NCc1ccccc1)[C@@H](C)CC)NC(=O)[C@@H](N)CC1CCCCC1 (stereo partly shown) [Example 8] | 160 | – | –
6 | CC[C@H](C)[C@H](NC(=O)[C@@H]1CCCN1C[C@H](CC(C)C)NC(=O)[C@H](CC(N)=O)NC(=O)[C@H](Cc1ccccc1)NC(=O)OC(C)(C)C)C(=O)OCc1ccccc1 [Example 14, 1-[1-[2-(S)-[[1-[1-[(1,1-Dimethylethoxy)carbonyl]-L-phenylalanyl]-L-asparaginyl]amino]-4-methylpentyl]-L-proline]-L-isoleucine Phenylmethyl Ester] | < 50000 | – | –
7 | CC[C@H](C)[C@H](NC(=O)[C@@H]1CCCN1C[C@H](CC1CCCCC1)NC(=O)OC(C)(C)C)C(=O)NCc1ccccc1 [Example 16, 1-[1-[2-(S)-[[(1,1-dimethylethoxy)carbonyl]amino]-3-cyclohexylpropyl]-L-proline]-L-isoleucine Benzylamide] | > 5000 | – | –
8 | CC[C@H](C)[C@H](NC(=O)[C@@H]1CCCN1C[C@@H](NC(=O)OC(C)(C)C)C(C)C)C(=O)NCc1ccccc1 [Example 17, 1-[1-[2-(S)-[[(1,1-dimethylethoxy)carbonyl]amino]-3-methylbutyl]-L-proline] -L-isoleucine Benzylamide] | 470 | – | –
9 | CC[C@H](C)[C@H](NC(=O)[C@@H]1CCCCN1C[C@H](CC(C)C)NC(=O)OC(C)(C)C)C(=O)NCc1ccccc1 [Example 18, 1-[1-[2-(S)-[[(1,1-Dimethylethoxy)carbonyl]amino]-4-methylpentyl]-L-homoproline]-L-isoleucine Benzylamide] | 1300 | – | –
10 | CC[C@H](C)[C@@H](CN1CCCC[C@H]1C(=O)N[C@H](C(=O)NCc1ccccc1)[C@@H](C)OCc1ccccc1)NC(=O)OC(C)(C)C [Example 19, 1-[1-[2-(S)-[[(1,1-Dimethylethoxy)carbonyl]amino]-3-(S)-methylpentyl]-L-homoproline]-L-threonene(O-Benzyl Ether)Benzylamide] | 5000 | 43 | 2.1 ± 0.6
